In ChEMBL document CHEMBL1145735, “Synthesis and antitumor activity of novel C-8 ester derivatives of leinamycin” (Bioorg Med Chem Lett, 2003):

Experiments:
Mus musculus [1] = experiment: In vivo antitumor activity against murine sarcoma 180 cells at an optimal dose of 8 mg/kg.; format: functional
HeLa = experiment: In vitro antiproliferative activity against HeLa S3 cells.; format: functional, cell-based; details: Homo sapiens
Mus musculus [2] = experiment: In vivo antitumor activity against lymphocytic leukemia P388 in mice expressed as maximal increase in life span at an optimal dose of 8 mg/kg.; format: functional
Mus musculus [3] = experiment: In vivo antitumor activity against murine sarcoma 180 cells at an optimal dose of 16 mg/kg.; format: functional
Mus musculus [4] = experiment: In vivo antitumor activity against murine sarcoma 180 cells at an optimal dose of 4 mg/kg.; format: functional
Mus musculus [5] = experiment: In vivo antitumor activity against lymphocytic leukemia P388 in mice expressed as maximal increase in life span at an optimal dose of 4 mg/kg.; format: functional
Mus musculus [6] = experiment: Antitumor activity against human Lu-65 tumor cells, at a dose of 8 mg/kg upon i.v. administration in nude mice; format: functional; details: route intravenous
Mus musculus [7] = experiment: Antitumor activity against human A-2780 tumor cells, at a dose of 8 mg/kg upon i.v. administration in nude mice; format: functional; details: route intravenous
Mus musculus [8] = experiment: Antitumor activity against human HCT116 tumor cells, at a dose of 8 mg/kg upon i.v. administration in nude mice; format: functional; details: route intravenous
Mus musculus [9] = experiment: In vivo antitumor activity against lymphocytic leukemia P388 in mice expressed as maximal increase in life span at an optimal dose of 16 mg/kg.; format: functional
Mus musculus [10] = experiment: In vivo antitumor activity against murine sarcoma 180 cells at an optimal dose of 2 mg/kg.; format: functional
Mus musculus [11] = experiment: In vivo antitumor activity against lymphocytic leukemia P388 in mice expressed as maximal increase in life span at an optimal dose of 1 mg/kg.; format: functional

In the case of C/C1=C\[C@@H](OC(=O)CNC(=O)CNC(=O)c2ccccc2)C(=O)/C=C/C=C\c2csc(n2)[C@H](C)NC(=O)C[C@@]2(CC1)[S+]([O-])SC(=O)[C@]2(C)O (stereo partly specified), the T/C (Mus musculus [1]) is reported as 0.42, the IC50 (HeLa) is reported as 8.7 nM and the ILS at 8 mg/kg (Mus musculus [2]) is reported as 78%.
COCCOCCOCCOCCOCC(=O)O[C@@H]1/C=C(\C)CC[C@]2(CC(=O)N[C@@H](C)c3nc(cs3)/C=C\C=C\C1=O)[S+]([O-])SC(=O)[C@]2(C)O (stereo partly specified) gave a T/C (Mus musculus [1]) of 0.51 and an IC50 (HeLa) of 240 nM.
COCCOCC(=O)OCCOCCOCC(=O)O[C@@H]1/C=C(\C)CC[C@]2(CC(=O)N[C@@H](C)c3nc(cs3)/C=C\C=C\C1=O)[S+]([O-])SC(=O)[C@]2(C)O (stereo partly specified) was tested, and the T/C (Mus musculus [1]) was 0.12.
C/C1=C\[C@@H](OC(=O)CNC(=O)[C@@H](C)NC(=O)OCc2ccccc2)C(=O)/C=C/C=C\c2csc(n2)[C@H](C)NC(=O)C[C@@]2(CC1)[S+]([O-])SC(=O)[C@]2(C)O (stereo partly specified) gave a T/C (Mus musculus [3]) of 0.61, an IC50 (HeLa) of 34 nM and an ILS at 8 mg/kg (Mus musculus [2]) of 58%.
With COCCOCCOCC(=O)O[C@@H]1/C=C(\C)CC[C@]2(CC(=O)N[C@@H](C)c3nc(cs3)/C=C\C=C\C1=O)[S+]([O-])SC(=O)[C@]2(C)O (stereo partly specified) the T/C (Mus musculus [4]) was 0.3 and the IC50 (HeLa) was 66 nM.
C/C1=C\[C@@H](OC(=O)CNC(=O)CN(C)C(=O)OCc2ccccc2)C(=O)/C=C/C=C\c2csc(n2)[C@H](C)NC(=O)C[C@@]2(CC1)[S+]([O-])SC(=O)[C@]2(C)O (stereo partly specified) gave an ILS at 4 mg/kg (Mus musculus [5]) of 70%, a T/C (Mus musculus [1]) of 0.61 and an IC50 (HeLa) of 67 nM.
C/C1=C\[C@@H](OC(=O)COCCOCCOCCOCCO)C(=O)/C=C/C=C\c2csc(n2)[C@H](C)NC(=O)C[C@@]2(CC1)[S+]([O-])SC(=O)[C@]2(C)O (stereo partly specified) was tested, and the T/C (Mus musculus [1]) was 0.18.
C/C1=C\[C@@H](OC(=O)[C@@H](C)NC(=O)OCc2ccccc2)C(=O)/C=C/C=C\c2csc(n2)[C@H](C)NC(=O)C[C@@]2(CC1)[S+]([O-])SC(=O)[C@]2(C)O (stereo partly specified) gave an ILS at 4 mg/kg (Mus musculus [5]) of 52%, a T/C (Mus musculus [4]) of 0.56 and an IC50 (HeLa) of 45 nM.
C/C1=C\[C@@H](OC(=O)CNC(=O)[C@H](NC(=O)OCc2ccccc2)C(C)C)C(=O)/C=C/C=C\c2csc(n2)[C@H](C)NC(=O)C[C@@]2(CC1)[S+]([O-])SC(=O)[C@]2(C)O (stereo partly specified) gave a T/C (Mus musculus [1]) of 0.56, an IC50 (HeLa) of 16 nM and an ILS at 8 mg/kg (Mus musculus [2]) of 67%.
C/C1=C\[C@@H](OC(=O)CCNC(=O)OCc2ccccc2)C(=O)/C=C/C=C\c2csc(n2)[C@H](C)NC(=O)C[C@@]2(CC1)[S+]([O-])SC(=O)[C@]2(C)O (stereo partly specified) showed an ILS at 4 mg/kg (Mus musculus [5]) of 53%, a T/C (Mus musculus [4]) of 0.79 and an IC50 (HeLa) of 40 nM.
With C/C1=C\[C@@H](OC(=O)CNC(=O)CCNC(=O)OC(C)(C)C)C(=O)/C=C/C=C\c2csc(n2)[C@H](C)NC(=O)C[C@@]2(CC1)[S+]([O-])SC(=O)[C@]2(C)O (stereo partly specified) the T/C (Mus musculus [1]) was 0.45, the IC50 (HeLa) was 170 nM and the ILS at 8 mg/kg (Mus musculus [2]) was 67%.
C/C1=C\[C@@H](OC(=O)CNC(=O)CNC(=O)OC(C)(C)C)C(=O)/C=C/C=C\c2csc(n2)[C@H](C)NC(=O)C[C@@]2(CC1)[S+]([O-])SC(=O)[C@]2(C)O (stereo partly specified) gave a T/C (Mus musculus [6]) of 0.43, a T/C (Mus musculus [7]) of 0.73 and a T/C (Mus musculus [1]) of 0.22. It also gave a T/C (Mus musculus [8]) of 0.7, an IC50 (HeLa) of 20 nM and an ILS at 8 mg/kg (Mus musculus [2]) of 46%.
Molecule C/C1=C\[C@@H](OC(=O)CNC(=O)CCNC(=O)OCc2ccccc2)C(=O)/C=C/C=C\c2csc(n2)[C@H](C)NC(=O)C[C@@]2(CC1)[S+]([O-])SC(=O)[C@]2(C)O (stereo partly specified) has a T/C (Mus musculus [1]) of 0.55, an IC50 (HeLa) of 20 nM and an ILS at 16 mg/kg (Mus musculus [9]) of 76%.
C/C1=C\[C@@H](OC(=O)CN(C)C(=O)OCc2ccccc2)C(=O)/C=C/C=C\c2csc(n2)[C@H](C)NC(=O)C[C@@]2(CC1)[S+]([O-])SC(=O)[C@]2(C)O (stereo partly specified) was tested, and the ILS at 4 mg/kg (Mus musculus [5]) was 48%, the T/C (Mus musculus [1]) was 0.74 and the IC50 (HeLa) was 52 nM.
In the case of COCCOCCOCCOCCOCCOCCOCC(=O)O[C@@H]1/C=C(\C)CC[C@]2(CC(=O)N[C@@H](C)c3nc(cs3)/C=C\C=C\C1=O)[S+]([O-])SC(=O)[C@]2(C)O (stereo partly specified), the IC50 (HeLa) is reported as 210 nM.
Molecule CC(=O)NCC(=O)O[C@@H]1/C=C(\C)CC[C@]2(CC(=O)N[C@@H](C)c3nc(cs3)/C=C\C=C\C1=O)[S+]([O-])SC(=O)[C@]2(C)O (stereo partly specified) has an ILS at 4 mg/kg (Mus musculus [5]) of 66%, a T/C (Mus musculus [10]) of 0.67 and an IC50 (HeLa) of 13 nM.
Molecule C/C1=C\[C@@H](O)C(=O)/C=C/C=C\c2csc(n2)[C@H](C)NC(=O)C[C@@]2(CC1)[S+]([O-])SC(=O)[C@]2(C)O (stereo partly specified) has a T/C (Mus musculus [10]) of 0.44, an IC50 (HeLa) of 28 nM and an ILS at 1 mg/kg (Mus musculus [11]) of 64%.
